Assay: Retinoid solubility in oil
Type: physicochemical
Method: Retinoid solubility in oil is determined by the following procedure. A known weight of pure retinoid in excess of the expected solubility limit in the oil is added in an oil and methanol is added to the mixture to dissolve all retinoid crystals. Nitrogen sparging is used to ensure all methanol has evaporated from the oil. Retinoid is allowed to recrystallize overnight. The sample is filtered through a 0.45 micron filter. Known dilutions of the filtrate in isopropanol are measured by UV spectroscopy at an appropriate wavelength (325 nm for retinol) and the concentration of retinoid determined against calibration standards of retinoid in isopropanol.

SOLUBILITY, WT % (retinol crystals in C12-15 Alkyl benzoate): 85 WT %
SOLUBILITY, WT % (retinol crystals in Cetiol OE): 45 WT %
SOLUBILITY, WT % (retinol crystals in Cyclomethicone): 2.7 WT %
SOLUBILITY, WT % (retinol crystals in Dimethicone): 0.49 WT %
SOLUBILITY, WT % (retinol crystals in Isostearyl palmitate): 44 WT %
SOLUBILITY, WT % (retinol crystals in Mineral oil): 34.2 WT %
SOLUBILITY, WT % (retinol crystals in Triolein/Squalene (6:1)): 56.4 WT %
SMILES: CC1=C(/C=C/C(C)=C/C=C/C(C)=C/CO)C(C)(C)CCC1 [retinol]

— patent US6451330B1, “High skin friction cosmetic creams with retinoids” (Unilever Home & Personal Care, USA, division of Conopco, …, priority 2000, dated 2002)
